Source: patent publication US9193731B2, “Antimicrobial compounds and methods of making and using the same” (Melinta Therapeutics, Inc., priority 2009, dated 2015)

The molecules below were run on Escherichia coli strain ATCC25922 (assay: standard microdilution assay to determine minimum inhibitory concentrations (MICs)). Conditions: Escherichia coli strain ATCC25922, microdilution.
Format: cell-based
Method in brief: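 E. coli strain ATCC25922 tested per CLSI microdilution methodology (about 100 microliters per well) to find minimum inhibitory concentrations. Activity scored categorically at a 16 micrograms/ml threshold.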

Row | Compound | E. coli ATCC25922 MIC
1 | NC(N)=NCCCNCc1ccc(-n2cc3cc(-c4cccc(S(=O)(=O)N(CCN5CCCC5)C5CCNCC5)c4)[nH]c3nc2=O)cc1 [Compound 1186] | + (a “+” indicates that the compound has an MIC value of 16 micrograms/ml or less)
2 | N=C(N)NCCCNCc1ccc(-n2cc3cc(C4CCCN(C(=O)CCCN)C4)[nH]c3nc2=O)cc1 (stereo not shown) [Compound 1406] | + (a “+” indicates that the compound has an MIC value of 16 micrograms/ml or less)
3 | N=C(N)NCCCNCc1ccc(-n2cc3cc(-c4ccc(F)c(CCCCN)c4)[nH]c3nc2=O)cc1 [Compound 2071a] | + (a “+” indicates that the compound has an MIC value of 16 micrograms/ml or less)
4 | N=C(N)N[C@@H]1CCN(Cc2ccc(-n3cc4cc(-c5ccc(S(=O)(=O)N(CCCN6CCCCC6)C6CCNCC6)cc5)[nH]c4nc3=O)cc2)C1 [Compound 1201] | + (a “+” indicates that the compound has an MIC value of 16 micrograms/ml or less)
5 | CNCc1ccc(-n2cc3cc(-c4ccc(S(=O)(=O)N(Cc5ccc(Cl)c(Cl)c5)C5CCNCC5)cc4)[nH]c3nc2=O)cc1 [Compound 933] | − (a “−” indicates that the compound has an MIC value greater than 16 micrograms/ml)
6 | N=C(N)NCCCNCc1ccc(-n2cc3cc(-c4cc(C=CCCN)cc(OC(F)(F)F)c4)[nH]c3nc2=O)cc1 [Compound 2045a] | + (a “+” indicates that the compound has an MIC value of 16 micrograms/ml or less)
7 | N=C(N)NCCCNCc1ccc(-n2cc3cc(-c4cc(C(=O)N5CCS(=O)(=O)CC5)cc(N5CCNCC5)c4)[nH]c3nc2=O)cc1 [Compound 875] | + (a “+” indicates that the compound has an MIC value of 16 micrograms/ml or less)
8 | N=C(N)NCCCNC(=O)c1ccc(-n2cc3cc(-c4ccc(S(=O)(=O)N(CCCC5CCCC5)C5CCNCC5)cc4)[nH]c3nc2=O)cc1 [Compound 1011] | + (a “+” indicates that the compound has an MIC value of 16 micrograms/ml or less)
9 | N=C(N)NCCCNCc1ccc(-n2cc3cc(-c4ccc(S(=O)(=O)C[C@@H](O)CN5CCCCC5)cc4)[nH]c3nc2=O)cc1 [Compound 1171] | + (a “+” indicates that the compound has an MIC value of 16 micrograms/ml or less)
10 | N=C(N)NCCCNC(=O)c1ccc(-n2cc3cc(-c4cccc(OC[C@@H](O)CN)c4)[nH]c3nc2=O)cc1 [Compound 1399] | + (a “+” indicates that the compound has an MIC value of 16 micrograms/ml or less)
11 | N=C(N)NCCCNCc1ccc(-n2cc3cc(-c4ccc(C(NC5CN(C(=N)N)C5)C(F)(F)F)cc4)[nH]c3nc2=O)cc1 (stereo not shown) [Compound 1432] | + (a “+” indicates that the compound has an MIC value of 16 micrograms/ml or less)
12 | N=C(N)CCCOc1cccc(-c2cc3cn(-c4ccc(CNCCCNC(=N)N)cc4)c(=O)nc3[nH]2)c1 [Compound 1217] | + (a “+” indicates that the compound has an MIC value of 16 micrograms/ml or less)
13 | N=C(N)NCCCNCc1ccc(-n2cc3cc(-c4cc(CCCCN)cc(C(N)=O)c4)[nH]c3nc2=O)cc1 [Compound 2069a] | + (a “+” indicates that the compound has an MIC value of 16 micrograms/ml or less)
14 | N=C(N)NCCCNCc1ccc(-n2cc3cc(C4CCN(CC5CNC(=O)O5)C4)[nH]c3nc2=O)cc1 (stereo not shown) [Compound 1457] | − (a “−” indicates that the compound has an MIC value greater than 16 micrograms/ml)
15 | N=C(N)NCCCNCc1ccc(-n2cc3cc(-c4cc(CCNC(N)=O)cc(OCC(F)CN)c4)[nH]c3nc2=O)cc1 (stereo not shown) [Compound 2012a] | − (a “−” indicates that the compound has an MIC value greater than 16 micrograms/ml)
16 | N=C(N)NCCCNCc1ccc(-n2cc3cc(-c4ccc(S(=O)(=O)NC5CCNCC5)cc4)[nH]c3nc2=O)cc1 [Compound 871] | + (a “+” indicates that the compound has an MIC value of 16 micrograms/ml or less)
17 | N=C(N)NCCCNCc1ccc(-n2cc3cc(-c4ccc(S(=O)(=O)N(CC5COc6ccccc6O5)C5CCOCC5)cc4)[nH]c3nc2=O)cc1 (stereo not shown) [Compound 877] | − (a “−” indicates that the compound has an MIC value greater than 16 micrograms/ml)
18 | N=C(N)NCCCNCc1ccc(-n2cc3cc(-c4cc(CCCCN)cc(OC(F)F)c4)[nH]c3nc2=O)cc1 [Compound 2074a] | + (a “+” indicates that the compound has an MIC value of 16 micrograms/ml or less)
19 | N=C(N)NCCCNCc1ccc(-n2cc3cc(-c4ccc(S(=O)(=O)N(CCCc5ccncc5)C5CCNCC5)cc4)[nH]c3nc2=O)cc1 [Compound 838] | + (a “+” indicates that the compound has an MIC value of 16 micrograms/ml or less)
20 | NCCCNC(=O)c1ccc(-n2cc3cc(-c4ccc(S(=O)(=O)NC5CCNCC5)cc4)[nH]c3nc2=O)cc1 [Compound 892] | + (a “+” indicates that the compound has an MIC value of 16 micrograms/ml or less)
21 | N=C(N)NCCCNCc1ccc(-n2cc3cc(-c4cc(C(=O)NCC(F)F)cc(N5CCNCC5)c4)[nH]c3nc2=O)cc1 [Compound 970] | + (a “+” indicates that the compound has an MIC value of 16 micrograms/ml or less)
22 | N=C(N)NCCC(NCc1ccc(-n2cc3cc(-c4cc(CCCCN)cc(OC(F)(F)F)c4)[nH]c3nc2=O)cc1)C(F)(F)F (stereo not shown) [Compound 2078a] | + (a “+” indicates that the compound has an MIC value of 16 micrograms/ml or less)
23 | N=C(N)NCCCNCc1ccc(-n2cc3cc(-c4cccc(C(CCCN)C(F)(F)F)c4)[nH]c3nc2=O)cc1 (stereo not shown) [Compound 2075a] | + (a “+” indicates that the compound has an MIC value of 16 micrograms/ml or less)

Same assay, conditions: Escherichia coli, ATCC25922, Escherichia coli strain ATCC25922, microdilution; read-out: E. coli ATCC25922 MIC

Row | MIC [µg/mL] | Compound
24 | < 16 | NCCCNCc1ccc(-n2cc3cc(-c4cccc(NCC(=O)N5CCNCC5)c4)[nH]c3nc2=O)cc1 [Compound 644]
25 | > 16 | NCCCNCc1ccc(-n2cc3cc(-c4ccc(C(F)(F)F)cc4)[nH]c3nc2=O)cc1 [Compound 611]
26 | > 16 | CS(=O)(=O)NCc1cc2cn(-c3ccc(CNCCCNC(=N)N)cc3)c(=O)nc2[nH]1 [Compound 1153]
27 | > 16 | NCCCNCc1ccc(-n2cc3cc(CC4CCCCC4)[nH]c3nc2=O)cc1 [Compound 622]
28 | > 16 | NCCCNCc1ccc(-c2cn3nc(-c4ccc(F)cc4)[nH]c3nc2=O)cc1 [Compound 662]
29 | < 16 | CN(C(=O)c1ccc(-c2cn3cc(-c4ccc(CNCCCNC(=N)N)cc4)c(=O)nc3[nH]2)cc1)C1CCNCC1 [Compound 736]
30 | > 16 | CN(C)CCCOc1cccc(-c2cc3cn(-c4ccc(CN)cc4)c(=O)nc3[nH]2)c1 [Compound 1113]
31 | > 16 | NCCCNCc1ccc(-n2cc3cc[nH]c3nc2=O)cc1 [Compound 498]
32 | > 16 | N=C(N)NCCCNCc1ccc(-c2cn3cc(-c4ccc(S(=O)(=O)N5CCOCC5)cc4)[nH]c3nc2=O)cc1 [Compound 762]
33 | < 16 | N=C(N)NCCCNCc1ccc(-n2cc3cc(CCS(=O)(=O)C4CCNCC4)[nH]c3nc2=O)cc1 [Compound 1240]
34 | > 16 | NCCCNCc1ccc(-c2cn3cc(-c4ccc(F)cc4)[nH]c3nc2=O)cc1 [Compound 506]
35 | < 16 | N=C(N)NCCCN(CCCN)Cc1ccc(-n2cc3cc(-c4ccc(S(=O)(=O)NC5CCNCC5)cc4F)[nH]c3nc2=O)cc1 [Compound 221]
36 | > 16 | CC(C)NC(=O)CCc1cc2cn(-c3ccc(CNCCCN)cc3)c(=O)nc2[nH]1 [Compound 293]
37 | > 16 | CNCc1ccc(-n2cc3cc(-c4ccc(S(=O)(=O)N(CCCn5ccc(C(F)(F)F)n5)C5CCNCC5)cc4)[nH]c3nc2=O)cc1 [Compound 1021]
38 | > 16 | N=C(N)NCCCNCc1ccc(-c2cn3cc(-c4ccc(Br)cc4)[nH]c3nc2=O)cc1 [Compound 618]
39 | > 16 | NCCCCCN1CC=C(n2cc3cc(-c4ccc(F)cc4)[nH]c3nc2=O)CC1 [Compound 508]
40 | < 16 | CN(C)C(=O)c1cc(-c2cc3cn(-c4ccc(CNCCCN)cc4)c(=O)nc3[nH]2)cc(N2CCNCC2)c1 [Compound 796]
41 | > 16 | CC(C)(N)c1cc2cn(-c3ccc(CNCCCN)cc3)c(=O)nc2[nH]1 [Compound 625]
42 | > 16 | NCc1ccc(-n2cc3cc(-c4cccc(OCCCO)c4)[nH]c3nc2=O)cc1 [Compound 1099]
43 | > 16 | NCCCCOc1ccc(-c2cn3cc(-c4ccc(Br)cc4)[nH]c3nc2=O)cc1 [Compound 810]
44 | < 16 | N=C(N)NCCCNCc1ccc(-n2cc3cc(-c4cccc(OCCCN5CCNCC5)c4)[nH]c3nc2=O)cc1 [Compound 1162]
45 | > 16 | N=C(N)NCCCNCc1ccc(-c2cn3cc(-c4ccc(C(=O)N5CCN(c6ccc(F)cc6)CC5)cc4)[nH]c3nc2=O)cc1 [Compound 670]
46 | < 16 | Cn1cncc1-c1cc2cn(-c3ccc(CN(CCCN)CCCN)cc3)c(=O)nc2[nH]1 [Compound 184]
47 | > 16 | N=C(N)NCCCNCc1ccc(-n2cc3cc(-c4cccc(NCC(=O)N5CCOCC5)c4)[nH]c3nc2=O)cc1 [Compound 637]
48 | > 16 | O=c1nc2[nH]c(-c3ccc(S(=O)(=O)NC4CCNCC4)cc3)cc2cn1-c1ccccc1OCC1CCNCC1 [Compound 1165]
49 | > 16 | NCc1ccc(-n2cc3cc(-c4ccc(S(=O)(=O)N(Cc5ccc(Cl)c(Cl)c5)C5CCNCC5)cc4)[nH]c3nc2=O)cc1 [Compound 945]
50 | > 16 | N=C(N)NCCCNCc1ccc(-n2cc3cc(C[C@@H](CO)NC(=O)c4ccccc4)[nH]c3nc2=O)cc1 [Compound 1231]
51 | < 16 | N=C(N)NCCCNCc1ccc(-n2cc3cc(C4CCCN(CCNC(N)=O)C4)[nH]c3nc2=O)cc1 (stereo not shown) [Compound 2019a]
52 | < 16 | N=C(N)NCCCNCc1ccc(-c2cn3cc(-c4ccc(C(=O)NC5CCNC5)cc4)[nH]c3nc2=O)cc1 (stereo not shown) [Compound 705]
53 | > 16 | COCCOCCN(C1CCNCC1)S(=O)(=O)c1cccc(-c2cc3cn(-c4ccc(CN)cc4)c(=O)nc3[nH]2)c1 [Compound 1158]

Row | Compound | MIC [µg/mL]
54 | CN1C2CCC1CC(NC(=O)c1ccc(-c3cc4cn(-c5ccc(CN(CCCN)CCCN)cc5)c(=O)nc4[nH]3)cc1)C2 (stereo not shown) [Compound 206] | < 16
55 | N=C(N)NCCCN(CCCN)Cc1ccc(-n2cc3cc(-c4ccc(C(=O)NC5CN6CCC5CC6)cc4)[nH]c3nc2=O)cc1 (stereo not shown) [Compound 216] | < 16
